Test: Plasma protein binding of cysteamine
Type: in vitro ADME
Conditions: human plasma proteins, predominantly albumin

NCCS [cysteamine]
fraction unbound: ~0.48
